Laboratory results taken from EPA's ToxValDB 9.5 (doi:10.2903/j.efsa.2017.4722).
Values after ≈ are worked out from the molar mass of the structure shown.

Assays:
Pimephales promelas = conditions: chronic/long-term; duration: 35 days; other
Anas platyrhynchos = conditions: acute; oral; unspecified; mortality
Apis mellifera = conditions: acute; oral; unspecified; mortality
Landoltia sp. = conditions: chronic/long-term; duration: 14 days; frond number
Canidae = conditions: oral, Dog Other
Colinus virginianus = conditions: for LD50: acute, oral, mortality
Neomysis kadiakensis = conditions: acute; duration: 96 hours; oral; feed; mortality
Daphnia magna = conditions: chronic/long-term; duration: 21 days; reproduction
Lepomis macrochirus = conditions: acute; duration: 96 hours; oral; feed; mortality
Typhlodromus pyri = test: LR50; higher = less toxic; conditions: acute; mortality
Oncorhynchus mykiss = conditions: acute; duration: 96 hours; mortality

`Cc1cc(C)nc(NC(=O)NS(=O)(=O)c2ccccc2C(=O)OC2COC2)n1` [Oxasulfuron] was tested, and the LC50 (Tagia sp.; acute, duration: 14 days, mortality) was > 1000 mg/kg, the NOEC (Tagia sp.; chronic/long-term, duration: 56 days, reproduction) was 2 mg/kg and the NOEC (Pimephales promelas) was 114 mg/L. The LD50 (Rattus norvegicus; acute, oral, mortality) was > 5000 mg/kg-day, the NOAEL (Rattus norvegicus; chronic, duration: 2 years, histopathology: nonneoplastic) was 8.3 mg/kg-day and the LD50 (Anas platyrhynchos) was > 2250 mg/kg-day. For the same molecule, the LD50 (Apis mellifera) was > 100 µg/piece, the NOEC (Landoltia sp.) was 0.0002 mg/L and the NOAEL (Canidae; chronic, duration: 1 years, neurology) was 1.3 mg/kg-day. The NOAEL (Canidae; subchronic, duration: 90 days, neurology) was 1.3 mg/kg-day, the LD50 (Colinus virginianus; diet) was > 1610 mg/kg-day and the LD50 (Colinus virginianus) was > 2250 mg/kg-day. The NOEL (Colinus virginianus; reproduction developmental) was 6.91 mg/kg-day, the LC50 (Neomysis kadiakensis) was 82.6 µg/mL (≈ 203 µM) and the NOEC (Daphnia magna) was 14 mg/L. For the same molecule, the LC50 (Lepomis macrochirus) was > 111 µg/mL and the LR50 (Typhlodromus pyri) was 3.23 g/ha.
For `OC1COC1` [Oxetan-3-ol], the LC50 (Oncorhynchus mykiss) was > 100 µg/mL and the NOAEL (Canidae; chronic, duration: 16 weeks, hematological) was 50 mg/kg-day.
